Results as given in the NIST ThermoML archive (doi:10.1021/acs.jced.6b00563).
± gives the expanded uncertainty stated by the source.

What was measured:
[1] = an = ratio of the nth substance listed; conditions: 100 kPa, Liquid, a1 = 2; for viscosity: Falling or rolling sphere viscometry; for speed of sound: Sing-around technique in a fixed-path interferometer; for mass density: Vibrating tube method
[2] = refractive index (Na D-line) (dimensionless); an = ratio of the nth substance listed; conditions: 100 kPa, Liquid, Standard Abbe refractometry, a1 = 2
[3] = 100 kPa, Liquid; for viscosity: Falling or rolling sphere viscometry; for speed of sound: Sing-around technique in a fixed-path interferometer; for mass density: Vibrating tube method
[4] = refractive index (Na D-line) (dimensionless); conditions: 100 kPa, Liquid, Standard Abbe refractometry

Molecule `CC(=O)CCC(=O)O` [4-oxopentanoic acid] + C[N+](C)(C)CCO.[Cl-] has a viscosity ([1]; 293.15 K) of 365.3 ± 24 mPa·s, a speed of sound ([1]; 293.15 K) of 1764 ± 2 m/s and a mass density ([1]; 293.15 K) of 1141.05 ± 1.2 kg/m3. The viscosity ([1]; 298.15 K) was 255.8 ± 14 mPa·s, the speed of sound ([1]; 298.15 K) was 1749 ± 2 m/s and the mass density ([1]; 298.15 K) was 1137.7 ± 1.2 kg/m3. For the same molecule, the viscosity ([1]; 303.15 K) was 185.5 ± 8.2 mPa·s, the speed of sound ([1]; 303.15 K) was 1734 ± 2 m/s and the mass density ([1]; 303.15 K) was 1134.34 ± 1.1 kg/m3. For the same molecule, the viscosity ([1]; 308.15 K) was 136.5 ± 4.6 mPa·s, the speed of sound ([1]; 308.15 K) was 1720 ± 2 m/s and the mass density ([1]; 308.15 K) was 1130.99 ± 1.1 kg/m3. For the same molecule, the viscosity ([1]; 313.15 K) was 103.7 ± 2.6 mPa·s, the speed of sound ([1]; 313.15 K) was 1707 ± 2 m/s and the mass density ([1]; 313.15 K) was 1127.63 ± 1.1 kg/m3. It also gave a viscosity ([1]; 318.15 K) of 81.5 ± 1.5 mPa·s, a speed of sound ([1]; 318.15 K) of 1693 ± 2 m/s and a mass density ([1]; 318.15 K) of 1124.3 ± 1.1 kg/m3. The viscosity ([1]; 323.15 K) was 64.8 ± 0.9 mPa·s, the speed of sound ([1]; 323.15 K) was 1680 ± 2 m/s and the mass density ([1]; 323.15 K) was 1120.98 ± 1.1 kg/m3. The viscosity ([1]; 328.15 K) was 51.7 ± 0.6 mPa·s, the speed of sound ([1]; 328.15 K) was 1667 ± 2 m/s and the mass density ([1]; 328.15 K) was 1117.68 ± 1.1 kg/m3. The viscosity ([1]; 333.15 K) was 43 ± 0.6 mPa·s, the speed of sound ([1]; 333.15 K) was 1654 ± 2 m/s and the mass density ([1]; 333.15 K) was 1114.69 ± 1.1 kg/m3. For the same molecule, the viscosity ([1]; 338.15 K) was 34.1 ± 0.4 mPa·s, the speed of sound ([1]; 338.15 K) was 1641 ± 2 m/s and the mass density ([1]; 338.15 K) was 1111.41 ± 1.1 kg/m3. For the same molecule, the viscosity ([1]; 343.15 K) was 28.6 ± 0.4 mPa·s, the speed of sound ([1]; 343.15 K) was 1628 ± 2 m/s and the mass density ([1]; 343.15 K) was 1108.1 ± 1.1 kg/m3. It also gave a refractive index ([2]; 293.15 K) of 1.46987 ± 0.00034, a refractive index ([2]; 298.15 K) of 1.46867 ± 0.00034 and a refractive index ([2]; 303.15 K) of 1.4673 ± 0.00034. It also gave a refractive index ([2]; 308.15 K) of 1.46595 ± 0.00034, a refractive index ([2]; 313.15 K) of 1.46457 ± 0.00034 and a refractive index ([2]; 318.15 K) of 1.4632 ± 0.00034. The refractive index ([2]; 323.15 K) was 1.4618 ± 0.00034, the refractive index ([2]; 328.15 K) was 1.46041 ± 0.00034 and the refractive index ([2]; 333.15 K) was 1.45902 ± 0.00034. It also gave a refractive index ([2]; 338.15 K) of 1.45761 ± 0.00034 and a refractive index ([2]; 343.15 K) of 1.45623 ± 0.00034.

For `CCCO` [propan-1-ol], the viscosity ([3]; 298.15 K) was 1.943 ± 0.024 mPa·s, the speed of sound ([3]; 298.15 K) was 1209 ± 2 m/s and the mass density ([3]; 298.15 K) was 799.69 ± 0.81 kg/m3. The viscosity ([3]; 308.15 K) was 1.549 ± 0.019 mPa·s, the speed of sound ([3]; 308.15 K) was 1175 ± 2 m/s and the mass density ([3]; 308.15 K) was 792.76 ± 0.8 kg/m3. It also gave a viscosity ([3]; 318.15 K) of 1.252 ± 0.016 mPa·s, a speed of sound ([3]; 318.15 K) of 1141 ± 2 m/s and a mass density ([3]; 318.15 K) of 784.45 ± 0.79 kg/m3. For the same molecule, the refractive index ([4]; 298.15 K) was 1.38275 ± 0.00032, the refractive index ([4]; 308.15 K) was 1.37857 ± 0.00032 and the refractive index ([4]; 318.15 K) was 1.37421 ± 0.00032.

`CCCCO` [butan-1-ol] showed a viscosity ([3]; 298.15 K) of 2.568 ± 0.032 mPa·s, a speed of sound ([3]; 298.15 K) of 1240 ± 2 m/s and a mass density ([3]; 298.15 K) of 805.75 ± 0.81 kg/m3. It also gave a viscosity ([3]; 308.15 K) of 1.998 ± 0.025 mPa·s, a speed of sound ([3]; 308.15 K) of 1206 ± 2 m/s and a mass density ([3]; 308.15 K) of 798.06 ± 0.81 kg/m3. For the same molecule, the viscosity ([3]; 318.15 K) was 1.578 ± 0.019 mPa·s, the speed of sound ([3]; 318.15 K) was 1173 ± 2 m/s and the mass density ([3]; 318.15 K) was 790.22 ± 0.8 kg/m3. For the same molecule, the refractive index ([4]; 298.15 K) was 1.39697 ± 0.00031, the refractive index ([4]; 308.15 K) was 1.39281 ± 0.00031 and the refractive index ([4]; 318.15 K) was 1.38857 ± 0.00031.

Molecule `CCO` [ethanol] has a viscosity ([3]; 298.15 K) of 1.083 ± 0.013 mPa·s, a speed of sound ([3]; 298.15 K) of 1143 ± 2 m/s and a mass density ([3]; 298.15 K) of 785.06 ± 0.79 kg/m3. For the same molecule, the viscosity ([3]; 308.15 K) was 0.901 ± 0.011 mPa·s, the speed of sound ([3]; 308.15 K) was 1109 ± 2 m/s and the mass density ([3]; 308.15 K) was 776.4 ± 0.78 kg/m3. For the same molecule, the viscosity ([3]; 318.15 K) was 0.758 ± 0.009 mPa·s, the speed of sound ([3]; 318.15 K) was 1075 ± 2 m/s and the mass density ([3]; 318.15 K) was 767.6 ± 0.78 kg/m3. It also gave a refractive index ([4]; 298.15 K) of 1.35905 ± 0.00031, a refractive index ([4]; 308.15 K) of 1.35501 ± 0.00031 and a refractive index ([4]; 318.15 K) of 1.35083 ± 0.00031.

In the case of `CCCCCO` [pentan-1-ol], the viscosity ([3]; 298.15 K) is reported as 3.502 ± 0.044 mPa·s, the speed of sound ([3]; 298.15 K) is reported as 1276 ± 2 m/s and the mass density ([3]; 298.15 K) is reported as 810.88 ± 0.82 kg/m3. The viscosity ([3]; 308.15 K) was 2.662 ± 0.034 mPa·s, the speed of sound ([3]; 308.15 K) was 1242 ± 2 m/s and the mass density ([3]; 308.15 K) was 803.5 ± 0.82 kg/m3. The viscosity ([3]; 318.15 K) was 2.061 ± 0.026 mPa·s, the speed of sound ([3]; 318.15 K) was 1209 ± 2 m/s and the mass density ([3]; 318.15 K) was 795.98 ± 0.81 kg/m3. It also gave a refractive index ([4]; 298.15 K) of 1.40752 ± 0.00033, a refractive index ([4]; 308.15 K) of 1.40352 ± 0.00033 and a refractive index ([4]; 318.15 K) of 1.39942 ± 0.00033.
